# Values quoted from earlier work in patent publication US8895061B2, “Compositions comprising carisoprodol and methods of use thereof” (Meda Pharmaceuticals Inc., priority 2007, dated 2014).
# Legend:
# [1] = for influence of polymorphic debrisoquine hydroxylation on elimination: poor metabolizers of debrisoquine, single oral doses
# [2] = in vivo
Compound,influence of polymorphic debrisoquine hydroxylation on elimination [1],"mean serum clearance of carisoprodol ([1]; poor metabolizers of mephenyloin compared with extensive metabolizers, single oral dose 700 mg carisoprodol)",onset of action [2],"mean serum clearance of meprobamate ([1]; poor metabolizers of mephenyloin compared with extensive metabolizers, single oral dose 400 mg meprobamate)"
"CCCC(C)(COC(N)=O)COC(=O)NC(C)C (centres unmarked) [carisoprodol, N-isopropyl-2-methyl-2-propyl-1,3-propanediol dicarbamate]",did not influence the elimination,four times lower,rapid,–
CCCC(C)(COC(N)=O)COC(N)=O [meprobamate],did not influence the elimination,–,–,did not differ between the two groups
